Data taken from patent US11999742B2, “Substituted pyrrolo[1,2-b]pyridazines as anthelmintics” (BOEHRINGER INGELHEIM VETMEDICA GMBH, priority 2021, dated 2024).

Tests used:
[1] = tested on: L4 stage larvae of Dirofilaria immitis; assay: Motility of L4 stage Dirofilaria immitis larvae, 3 days, dose response; type: cell-based; conditions: 72 h, read-out: EC50, motility of L4 stage D. immitis, three days at 37° C., 5% CO2, vs DMSO control
[2] = tested on: Microfilaria of Dirofilaria immitis; assay: Motility of Dirofilaria immitis microfilariae in microtiter plate, 3 days, dose response; type: cell-based; conditions: 72 h, read-out: EC50, motility of D. immitis microfilaria, three days at 37° C., 5% CO2, vs DMSO control
[3] = tested on: Haemonchus contortus L1 larvae; assay: Haemonchus contortus larval development L1 to L3, 4 days, dose response; conditions: 96 h, read-out: EC50, development of H. contortus larvae from L1 to L3
Excerpt: Biological Example 2: Screening Method to Test Activity of Compounds Against Haemonchus contortus

CN(C)c1c(C(=O)N[C@H]2CCOc3ccccc32)cnn2c(-c3cc(F)cc(Cl)c3Cl)c(Cl)cc12 [Compound A478]
EC50 [1]: 100 to 1000 nM | EC50 [2]: 10 to 100 nM | EC50 [3]: 10 to 100 nM

O=C(N[C@H]1CCOc2ccccc21)c1cnn2c(-c3cc(F)cc(Cl)c3Cl)c(Cl)cc2c1N1CC(F)(F)C1 [Compound A507]
EC50 [1]: < 10 nM | EC50 [2]: < 10 nM | EC50 [3]: < 10 nM

Cc1cc2c(N3CCOCC3)c(C(=O)N[C@H]3CCOc4ccccc43)cnn2c1-c1cc(Cl)cc(Cl)c1Cl [Compound A501]
EC50 [1]: < 10 nM | EC50 [2]: < 10 nM | EC50 [3]: 10 to 100 nM

CC(C)c1c(C(=O)N[C@H]2CCOc3ccccc32)cnn2c(-c3cc(Cl)cc(Cl)c3)c(Cl)cc12 [Compound A463]
EC50 [1]: 10 to 100 nM | EC50 [2]: < 10 nM | EC50 [3]: 10 to 100 nM

CC(C)(C)c1c(C(=O)N[C@H]2CCOc3ccccc32)cnn2c(-c3cc(Cl)cc(Cl)c3)c(Cl)cc12 [Compound A477]
EC50 [1]: < 10 nM | EC50 [2]: < 10 nM | EC50 [3]: 10 to 100 nM

Cc1cc2c(C(C)(C)C)c(C(=O)N[C@H]3CCOc4ccccc43)cnn2c1N1CCCCC1 [Compound A524, 4-tert-butyl-N-[(4S)-3,4-dihydro-2H-1-benzopyran-4-yl]-6-methyl-7-(piperidin-1-yl)pyrrolo[1,2-b]pyridazine-3-carboxamide]
EC50 [1]: 100 to 1000 nM | EC50 [2]: 100 to 1000 nM | EC50 [3]: 100 to 1000 nM

CC(C)(C)c1c(C(=O)N[C@H]2CCOc3ccccc32)cnn2c(-c3cc(F)cc(F)c3F)c(Cl)cc12 [Compound A486]
EC50 [1]: < 10 nM | EC50 [2]: < 10 nM | EC50 [3]: < 10 nM

Cc1cc2c(C(C)(C)C)c(C(=O)N[C@H]3CCOc4ccccc43)cnn2c1-c1cc(F)cc(F)c1F [Compound A471]
EC50 [1]: < 10 nM | EC50 [2]: < 10 nM | EC50 [3]: < 10 nM

Cc1cc2c(C(C)(C)C)c(C(=O)N[C@H]3CCc4ccccc43)cnn2c1-c1cc(F)cc(Cl)c1Cl [Compound A558]
EC50 [1]: < 10 nM | EC50 [2]: < 10 nM | EC50 [3]: < 10 nM

Cc1cc2c(C(C)(C)C)c(C(=O)N[C@H]3CCc4ncccc43)cnn2c1-c1cc(F)cc(Cl)c1Cl [Compound A559]
EC50 [1]: 10 to 100 nM | EC50 [2]: 10 to 100 nM | EC50 [3]: 10 to 100 nM

Cc1cc2c(C(C)C)c(C(=O)N[C@H]3CCOc4ccccc43)cnn2c1-c1cc(F)cc(F)c1F [Compound A513, N-[(4S)-3,4-dihydro-2H-1-benzopyran-4-yl]-6-methyl-4-(propan-2-yl)-7-(2,3,5-trifluorophenyl)pyrrolo[1,2-b]pyridazine-3-carboxamide]
EC50 [1]: < 10 nM | EC50 [2]: < 10 nM | EC50 [3]: 10 to 100 nM

Cc1cc2c(C(C)(C)C)c(C(=O)N[C@H]3CCOc4scnc43)cnn2c1-c1cc(F)cc(Cl)c1Cl [Compound A550]
EC50 [1]: 10 to 100 nM | EC50 [2]: 10 to 100 nM | EC50 [3]: 10 to 100 nM

Cc1cc2c(C(C)C)c(NC(=O)[C@H]3CCOc4ccccc43)cnn2c1-c1cc(Cl)cc(Cl)c1 [Compound A462]
EC50 [1]: 10 to 100 nM | EC50 [2]: 10 to 100 nM | EC50 [3]: 100 to 1000 nM

Cc1cc2c(C(C)(C)C)c(C(=O)NN3CCOc4ccccc43)cnn2c1-c1cc(F)cc(Cl)c1Cl [Compound A495]
EC50 [1]: < 10 nM | EC50 [2]: < 10 nM | EC50 [3]: < 10 nM

Cc1cc2c(C(C)(C)C)c(C(=O)N[C@H]3CCc4sccc43)cnn2c1-c1cc(F)cc(Cl)c1Cl [Compound A553]
EC50 [1]: < 10 nM | EC50 [2]: < 10 nM | EC50 [3]: < 10 nM

Cc1cc2c(C(C)(C)C)c(C(=O)N[C@H]3CCOc4ccccc43)cnn2c1-c1cc(F)cc(Cl)c1Cl [Compound A481, 4-tert-butyl-7-(2,3-dichloro-5-fluorophenyl)-N-[(4S)-3,4-dihydro-2H-1-benzopyran-4-yl]-6-methylpyrrolo[1,2-b]pyridazine-3-carboxamide]
EC50 [1]: < 10 nM | EC50 [2]: 10 to 100 nM | EC50 [3]: 10 to 100 nM

CC(C)c1c(C(=O)NN2CCOc3ccccc32)cnn2c(-c3cc(F)cc(Cl)c3Cl)c(Cl)cc12 [Compound A496]
EC50 [1]: 10 to 100 nM | EC50 [2]: < 10 nM | EC50 [3]: 10 to 100 nM

Cc1cc2c(N3CCOCC3)c(C(=O)N[C@H]3CCOc4ccccc43)cnn2c1-c1cc(Cl)cc(Cl)c1 [Compound A499]
EC50 [1]: < 10 nM | EC50 [2]: < 10 nM | EC50 [3]: 10 to 100 nM

Cc1cc2c(C(C)(C)C)c(C(=O)N[C@H]3CCCc4cc(Cl)ccc43)cnn2c1-c1cc(F)cc(Cl)c1Cl [Compound A549]
EC50 [1]: 100 to 1000 nM | EC50 [2]: 100 to 1000 nM | EC50 [3]: 1000 to 10000 nM

Cc1cc2c(C(C)(C)C)c(C(=O)N[C@H]3CCOc4ccccc43)cnn2c1N1C[C@H](C)C[C@H](C)C1 [Compound A528]
EC50 [1]: 10 to 100 nM | EC50 [2]: 10 to 100 nM | EC50 [3]: 100 to 1000 nM

CC1(C)CN(c2c(C(=O)N[C@H]3CCOc4ccccc43)cnn3c(-c4cc(F)cc(Cl)c4Cl)c(Cl)cc23)C1 [Compound A567]
EC50 [1]: 100 to 1000 nM | EC50 [2]: 1000 to 10000 nM | EC50 [3]: 1000 to 10000 nM

Cc1cc2c(C(C)(C)C)c(C(=O)N[C@H]3CCOc4ccc(F)cc43)cnn2c1-c1cc(F)cc(Cl)c1Cl [Compound A488]
EC50 [1]: 10 to 100 nM | EC50 [2]: < 10 nM | EC50 [3]: 10 to 100 nM

O=C(N[C@H]1CCOc2ccccc21)c1cnn2c(-c3cc(F)cc(Cl)c3Cl)c(Cl)cc2c1N1CCC1 [Compound A503]
EC50 [1]: < 10 nM | EC50 [2]: < 10 nM | EC50 [3]: 10 to 100 nM

Cc1cc2c(C(C)(C)C)c(C(=O)NC3CCCc4ncsc43)cnn2c1-c1cc(F)cc(Cl)c1Cl (stereo not drawn) [Compound A533]
EC50 [1]: 100 to 1000 nM | EC50 [2]: 10 to 100 nM | EC50 [3]: 100 to 1000 nM

Cc1cc2c(C(C)(C)C)c(C(=O)NN3CCOc4ccccc43)cnn2c1-c1cc(Cl)cc(Cl)c1 [Compound A482]
EC50 [1]: 10 to 100 nM | EC50 [2]: 1000 to 10000 nM | EC50 [3]: 100 to 1000 nM

Cc1cc2c(N(C)C)c(C(=O)N[C@H]3CCOc4ccccc43)cnn2c1-c1cc(F)cc(Cl)c1Cl [Compound A493, 7-(2,3-dichloro-5-fluorophenyl)-N-[(4S)-3,4-dihydro-2H-1-benzopyran-4-yl]-4-(dimethylamino)-6-methylpyrrolo[1,2-b]pyridazine-3-carboxamide]
EC50 [1]: < 10 nM | EC50 [2]: < 10 nM | EC50 [3]: < 10 nM

Cc1cc2c(N3CC(F)(F)C3)c(C(=O)N[C@H]3CCOc4ccccc43)cnn2c1-c1cc(F)cc(Cl)c1Cl [Compound A504]
EC50 [1]: < 10 nM | EC50 [2]: < 10 nM | EC50 [3]: 10 to 100 nM

CC(C)(C)c1c(C(=O)NN2CCOc3ccccc32)cnn2c(-c3cc(F)cc(Cl)c3Cl)c(Cl)cc12 [Compound A494]
EC50 [1]: < 10 nM | EC50 [2]: 10 to 100 nM | EC50 [3]: 10 to 100 nM

CC(C)c1c(C(=O)N[C@H]2CCOc3ccccc32)cnn2c(-c3cc(Cl)cc(Cl)c3)c(F)cc12 [Compound A466]
EC50 [1]: 10 to 100 nM | EC50 [2]: 10 to 100 nM | EC50 [3]: 100 to 1000 nM

Cc1cc2c(C(C)(C)C)c(C(=O)N[C@H]3CCc4scnc43)cnn2c1-c1cc(F)cc(Cl)c1Cl [Compound A540]
EC50 [1]: 10 to 100 nM | EC50 [2]: < 10 nM | EC50 [3]: 10 to 100 nM

CN(C)c1c(C(=O)N[C@H]2CCOc3ccccc32)cnn2c(-c3cc(F)cc(F)c3F)c(Cl)cc12 [Compound A474]
EC50 [1]: < 10 nM | EC50 [2]: < 10 nM | EC50 [3]: 10 to 100 nM

Cc1cc2c(C(C)(C)C)c(C(=O)N[C@H]3CCc4cccnc43)cnn2c1-c1cc(F)cc(Cl)c1Cl [Compound A544]
EC50 [1]: 100 to 1000 nM | EC50 [2]: 10 to 100 nM | EC50 [3]: 100 to 1000 nM

CC(C)(C)c1c(C(=O)N[C@H]2CCOc3ccccc32)cnn2c(-c3cc(Cl)cc(Cl)c3)c(C(F)(F)F)cc12 [Compound A483]
EC50 [1]: < 10 nM | EC50 [2]: 10 to 100 nM | EC50 [3]: 10 to 100 nM

CC(C)(C)c1c(C(=O)N[C@H]2CCOc3ccccc32)cnn2c(-c3c(F)cc(F)cc3F)c(Cl)cc12 [Compound A484]
EC50 [1]: < 10 nM | EC50 [2]: < 10 nM | EC50 [3]: < 10 nM

CC(C)c1c(C(=O)N[C@H]2CCOc3ccccc32)cnn2c(-c3cc(F)cc(Cl)c3Cl)c(Cl)cc12 [Compound A523, 6-chloro-7-(2,3-dichloro-5-fluorophenyl)-N-[(4S)-3,4-dihydro-2H-1-benzopyran-4-yl]-4-(propan-2-yl)pyrrolo[1,2-b]pyridazine-3-carboxamide]
EC50 [1]: < 10 nM | EC50 [2]: < 10 nM | EC50 [3]: < 10 nM

CN(C)c1c(C(=O)N[C@H]2CCOc3ccccc32)cnn2c(-c3cc(Cl)cc(Cl)c3Cl)c(Cl)cc12 [Compound A473]
EC50 [1]: < 10 nM | EC50 [2]: 10 to 100 nM | EC50 [3]: < 10 nM

Cc1cc2c(N3CC(F)(F)C3)c(C(=O)N[C@H]3CCOc4ccccc43)cnn2c1-c1cc(Cl)cc(Cl)c1Cl [Compound A505]
EC50 [1]: < 10 nM | EC50 [2]: < 10 nM | EC50 [3]: 10 to 100 nM
